Test results: patent US7351719B2, “Amide compounds having MCH-antagonistic activity and medicaments comprising these compounds” (Boehringer Ingelheim Pharma GmbH & Co. KG, priority 2002, dated 2008)

Biological target: T1, hMCH-1R (Homo sapiens, UniProt Q99705)
T1 construct: expressed in transfected cells; host or cells: CHO/Galpha16 cells (stably transfected); membranes used
Assay: MCH-1 receptor binding test (125I-MCH binding to hMCH-1R transfected cell membranes)
Conditions: hMCH-1R transfected CHO/Galpha16 cell membranes
Procedure: Membranes from CHO/Galpha 16 cells stably transfected with human hMCH-1R are resuspended using a syringe (needle 0.6×25 mm) and diluted in test buffer (50 mM HEPES, 10 mM MgCl2, 2 mM EGTA, pH 7.00; 0.1% bovine serum albumin (protease-free), 0.021% bacitracin,1 μg/mL aprotinin, 1 μg/mL leupeptin and 1 μM phosphoramidone) to a concentration of 5 to 15 μg/mL. […] After the incubation the reaction is filtered using a cell harvester through 0.5% PEI treated glass fibre filters (GF/B, Unifilter Packard). The membrane-bound radioactivity retained on the filter is then determined after the addition of scintillator substance (Packard Microscint 20) in a measuring device (TopCount of Packard).
The analysis of the concentration binding curve is carried out on the assumption of one receptor binding site.

T1 sequence (Q99705 whole entry): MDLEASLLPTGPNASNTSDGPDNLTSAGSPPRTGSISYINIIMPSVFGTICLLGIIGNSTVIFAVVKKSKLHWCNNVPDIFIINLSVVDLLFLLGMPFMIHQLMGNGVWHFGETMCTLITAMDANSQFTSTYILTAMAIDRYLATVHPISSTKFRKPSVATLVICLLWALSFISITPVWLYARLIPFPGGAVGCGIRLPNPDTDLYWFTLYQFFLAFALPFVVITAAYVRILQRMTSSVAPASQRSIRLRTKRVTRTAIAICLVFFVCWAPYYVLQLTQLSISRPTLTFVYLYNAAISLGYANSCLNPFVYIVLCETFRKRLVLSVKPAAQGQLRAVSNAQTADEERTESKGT

Compound: CCN(CC)CCn1ccc2cc(NC(=O)COc3ccc(C(F)(F)F)cc3Cl)ccc21 [Example 12]
- IC50: 41 nM

Compound: CCN(CC)CCOc1ccc(NC(=O)COc2ccc(C(C)(C)C)cc2Cl)cc1Cl [Example 34]
- IC50: 17 nM
